# In patent US7238340B1, “Monoamine, diamide, thiol-containing metal chelating agents” (CIS bio international, priority 1991, dated 2007):
# Experiments:
# [1] = In vivo imaging of deep vein thrombosis with Tc-99m labeled thrombus targeting peptide, canine model; details: mongrel, dog, thrombus, iv, total radioactivity
# From the text: (§1) Mongrel dogs (25–35 lb., fasted overnight) were sedated with a combination of ketamine and aceprozamine intramuscularly and then anesthetized with sodium pentabarbital intravenously. In each animal, an 18-gauge angiocath was inserted in the distal half of the right femoral vein and a 5 mm or 8 mm Dacron®-entwined stainless steel embolization coil (Cook Co., Bloomington Ind.) was placed in the femoral vein at approximately mid-femur. The catheter was removed, the wound sutured and the placement of the coil documented by X-ray. The animals were then allowed to recover overnight.
# (§2) One day following coil placement, each animal was re-anesthetized, intravenous saline drips placed in each foreleg and a urinary bladder catheter inserted to collect urine. The animal was placed supine under a gamma camera equipped with a low-energy, all purpose collimator and photopeaked for Tc-99m. […] The second line was maintained for blood collection.
# (§3) Gamma camera imaging was started simultaneously with injection. Anterior images over the heart were acquired as a dynamic study (10 sec image acquisitions) over the first 10 min, and then as static images at 1, 2, 3 and 4h post-injection. Anterior images over the legs were acquired for 500,000 counts or 20 min (whichever is shorter), at approximately 10–20 min, and at approximately 1, 2, 3 and 4h post-injection. Leg images were collected with a lead shield placed over the bladder.
# (§4) Following collection of the final image, each animal was deeply anesthetized with pentobarbital. Two blood samples were collected using a heparinized syringe followed by a euthanizing dose of saturated potassium chloride solution administered by intercardiac or bolus intravenous injection. […] The thrombus, coil and coil Dacron fibres were then dissected free of the vessel. The thrombus, saline-washed vessel samples, coil and coil Dacron® fibres were separated, and each sample was placed in a pre-weighed test tube. The samples were weighed and counted in a gamma well counter in the Tc-99m channel, along with known fractions of the injected doses.
# (§5) Fresh thrombus weight, percent injected dose (% ID)/g in the thrombus and blood obtained just prior to euthanasia and thrombus/blood and thrombus/muscle ratios were determined. From the computer-stored images, thrombus/background ratios were determined by analysis of the counts/pixel measured in regions-of-interest (ROI) drawn over the thrombus and adjacent muscle.
# thrombus = test: as above; details: Tc-99m labeled peptide, i.v., dog, ratio
# From the text: as §1, §2, §3, §4, §5
structure (smiles),measurement,setting,value
"CC(=O)NCSC[C@H](NC(=O)CNC(=O)CNC(=O)[C@@H]1CSCC(=O)N[C@H](Cc2ccc(O)cc2)C(=O)N[C@@H](Cc2ccc(C(=N)N)cc2)C(=O)NCC(=O)N[C@@H](CC(=O)O)C(=O)N1)C(=O)NCC(=O)N[C@@H](CSCNC(C)=O)C(=O)NCC(=O)NCC(=O)N[C@@H](CSCC(=O)NCCCC[C@H](NC(=O)CSC[C@H](NC(=O)CNC(=O)CNC(=O)[C@H](CSCNC(C)=O)NC(=O)CNC(=O)[C@H](CSCNC(C)=O)NC(=O)CNC(=O)CNC(=O)[C@@H]1CSCC(=O)N[C@H](Cc2ccc(O)cc2)C(=O)N[C@@H](Cc2ccc(C(=N)N)cc2)C(=O)NCC(=O)N[C@@H](CC(=O)O)C(=O)N1)C(N)=O)C(=O)NCCCC[C@H](N)C(=O)NCC(=O)N[C@@H](CS)C(N)=O)C(N)=O [Peptide P747, (CH2CO.YD.Amp.GDCGGCAcmGCAcmGGC.amide)2(CH2CO)2K(ε-K)GC.amide]",tissue uptake at 4 h,[1],0.043 %ID/g
same,Thrombus/Blood,thrombus,15
same,Thrombus/Muscle,thrombus,70
